Assay: Color difference (ΔE) after storage under accelerated condition, Reference Example 1
Format: physicochemical
Conditions: 40° C., 75% RH; for ΔE After 7 days: 7-day (168-hour) storage; for ΔE After 7 days / ΔE 0-Hour storage: n=1; for change in ΔE value after storage (in words): 7 days; for ΔE 0-Hour storage: start of storage
Description: The L value, a value, and b value of a sample were measured using a color difference meter (trade name: Spectrophotometer SE7700, available from Nippon Denshoku Industries Co., Ltd.). • The number n of samples was 3 for each standard unless otherwise mentioned. The average values of the three samples were defined as the L value, a value, and b value of the standard. • Measurement was performed five times for each sample, and the average value was output as the result. The sample was stirred for each measurement operation so that the whole sample was subjected to the measurement. • In the measurement, about 1 g of a sample was weighed out from a Petri dish for use. The sample in the Petri dish was mixed and homogenized before weighing out.
The ΔE value was calculated by the following formula.
ΔE={(ΔL)^2+(Δa)^2+(Δb)^2}^1/2
For each standard after storage for a predetermined period of time, the ΔE value was calculated based on the 0-time value (value after 0-hour storage) of the standard. For a control after storage for a predetermined period of time, the ΔE value was also calculated based on the 0-time value (value after 0-hour storage) of the control.
About 2 g each of the reduced CoQ10, sesamin compound, theanine, and dextrin were put into separate Petri dishes (n=1) and left to stand at a temperature of 40° C. and a humidity of 75% RH (accelerated condition). The L value, a value, and b value were measured at the start of storage (0-hour storage) and after 7-day (168-hour) storage, and then the ΔE value was calculated. For each sample, the change in appearance after seven days from the start of storage was visually observed.

Row | ΔE After 7 days | change in ΔE value after storage (in words) | appearance by visual observation after seven days | ΔE 0-Hour storage | Compound
1 | 66.4 | increase in ΔE value over time | orange | 0.0 | COc1c(O)c(C)c(C/C=C(\C)CC/C=C(\C)CC/C=C(\C)CC/C=C(\C)CC/C=C(\C)CC/C=C(\C)CC/C=C(\C)CC/C=C(\C)CC/C=C(\C)CCC=C(C)C)c(O)c1OC [Standard S-1, Reduced CoQ10]
2 | 0.1 | little change in ΔE value after storage | white to pale yellow | 0.0 | CCNC(=O)CC[C@H](N)C(=O)O [Standard S-3, Theanine]

— patent US20210353557A1, “ORAL COMPOSITION CONTAINING REDUCED COENZYME Q10, METHOD FOR PRODUCING SAME, METHOD FOR PREVENTING DISCOLORATION AND DISCOLORATION PREVENTING AGENT” (SUNTORY HOLDINGS LIMITED, priority 2018, published 2021)
